According to patent US4657931A, “N-(acyldipeptidyl)-aminoglycols” (G. D. Searle & Co., priority 1985, dated 1987):
Residue numbers refer to the chain shown, from its start. Square brackets hold non-standard residues; d marks the D form. Peptide text beside a SMILES is read from it. * marks the point of attachment. Sta = CC(C)C[C@H](N)[C@@H](O)CC(=O)O; Isovaleryl = CC(C)CC(=O)*

Columns and labels:
[1] = target: T1, human renin (Homo sapiens, UniProt P00797); experiment: Human Renin Test (angiotensin I by radioimmunoassay); assay type: biochemical
T1 sequence (P00797 67-406): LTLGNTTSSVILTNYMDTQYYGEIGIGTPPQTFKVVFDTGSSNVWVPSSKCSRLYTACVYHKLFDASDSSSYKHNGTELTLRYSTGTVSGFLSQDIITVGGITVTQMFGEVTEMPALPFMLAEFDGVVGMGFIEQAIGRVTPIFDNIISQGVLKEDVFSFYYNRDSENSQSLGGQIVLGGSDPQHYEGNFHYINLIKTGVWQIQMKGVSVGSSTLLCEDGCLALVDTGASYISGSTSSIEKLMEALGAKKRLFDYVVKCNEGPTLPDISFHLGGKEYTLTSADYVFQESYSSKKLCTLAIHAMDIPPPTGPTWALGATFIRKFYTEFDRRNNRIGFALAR
Description: The enzyme preparation was the international reference standard for human renin while human blood plasma was the angiotensinogen substrate source. The enzyme inhibition assay involved a two-hour incurbation at 37° C. of the following final concentrations of reagents (total volume of 0.25 ml): 0.1 mG units/ml human renin, 0.05 ml human plasma, 6 mM Na2 EDTA, 2.4 mM PMSF, 1.5 mM 8-hydroxyquinoline, 0.4 mg/ml BSA, 0.024 mg/ml neomycin sulfate in a 100 mM Tris Acetate buffer, pH 7.5. The reaction was terminated by boiling for 10 min and the angiotensin I produced was determined by radioimmunoassay.
This assay is a modification of the one by Burton et al. (Biochemistry 14, 3892, 1975).

[2] = target: T2, monkey renin (Macaca mulatta, UniProt Q6DLW5); experiment: Monkey Renin Test: plasma renin activity of Lasix treated Rhesus monkeys; assay type: in vivo; set-up: Plasma renin activity (PRA), Pre-Lasix -24 hr / Plasma renin activity (PRA), Post-Lasix 0 hr / Plasma renin activity (PRA), Post-Lasix 2 min / Plasma renin activity (PRA), Post-Lasix 5 min / Plasma renin activity (PRA), Post-Lasix 15 min: unit not given here; conditions: for PRA after 15 min, in words / PRA at 2 min after treatment, in words: 10 mg/kg iv, lasix treated Rhesus monkeys; for Plasma renin activity (PRA), Post-Lasix 2 min: 2 min after 10 mg/kg iv; for Plasma renin activity (PRA), Post-Lasix 2 min / Plasma renin activity (PRA), Post-Lasix 5 min / Plasma renin activity (PRA), Post-Lasix 15 min / Plasma renin activity (PRA), Pre-Lasix -24 hr / Plasma renin activity (PRA), Post-Lasix 0 hr: mean ± S.E., n = 6; for Plasma renin activity (PRA), Post-Lasix 5 min: 5 min after 10 mg/kg iv; for Plasma renin activity (PRA), Post-Lasix 15 min: 15 min after 10 mg/kg iv; for Plasma renin activity (PRA), Pre-Lasix -24 hr: baseline before lasix and before drug, group later given 10 mg/kg iv; for Plasma renin activity (PRA), Post-Lasix 0 hr: immediately before drug treatment (10 mg/kg iv)
T2 construct: from tissue; host or cells: plasma of furosemide-treated Rhesus monkeys
T2 sequence (Q6DLW5 67-406): T1 sequence (P00797 67-406) with T2A, I148L, S169A, Q204P, R340H
Description: Rhesus monkeys (6/group) weighing (6.3-9.9 kg) were treated with lasix (furosemide) at 2 mg/kg, both in the A.M. and P.M. on day 1. […] Plasma samples (K-EDTA) were taken before the initial lasix, immediately before the drug treatment and at 2, 5, 15 min after the treatment. Plasma renin activity (PRA) was determined by the method of Burton et al., Biochemistry 14, 3892, 1975.

[3] = system: hog renin; conditions: after the injection of hog renin into nephrectomized rats; cited from earlier work

SMILES: CC(C)C[C@H](NC(=O)[C@H](Cc1cccc2ccccc12)NC(=O)OC(C)(C)C)C(=O)N[C@@H](Cc1ccccc1)[C@@H](O)CO [Compound 8, N-[(1,1-dimethylethoxy)carbonyl]-3-(1-naphthalenyl)-L-alanyl-N-[2R,3-dihydroxy-1S-(phenylmethyl)propyl]-L-leucinamide]
- Activity, effect on human renin activity ([1]; Dose 1.5 × 10^-5 (unit not given)): Active

SMILES: CC(C)C[C@H](NC(=O)[C@H](Cc1ccccc1)NC(=O)OC(C)(C)C)C(=O)N[C@@H](Cc1ccccc1)[C@@H](O)CO [Compound 4, N-[(1,1-dimethylethoxy)carbonyl]-L-phenylalanyl-N-[2R, 3-dihydroxy-1S-(phenylmethyl)propyl]-L-leucinamide]
- PRA after 15 min, in words [2]: still lowered
- PRA at 2 min after treatment, in words [2]: returned to pre-lasix values
- Plasma renin activity (PRA), Post-Lasix 2 min [2]: 8.4 ± 2.6
- Plasma renin activity (PRA), Post-Lasix 5 min [2]: 15.1 ± 3.5
- Plasma renin activity (PRA), Post-Lasix 15 min [2]: 23.5 ± 4.6
- Plasma renin activity (PRA), Pre-Lasix -24 hr [2]: 12.2 ± 2.9
- Plasma renin activity (PRA), Post-Lasix 0 hr [2]: 47.2 ± 7.9
- Activity, effect on human renin activity ([1]; Dose 8.4 × 10^-6 (unit not given)): Active

SMILES: CC(C)C[C@H](NC(=O)[C@H](Cc1ccccc1)NC(=O)CC(C)(C)C)C(=O)N[C@@H](Cc1ccccc1)[C@@H](O)CO [Compound 11, N-(3,3-dimethyl-1-oxobutyl)-L-phenylalanyl-N-[2R,3-dihydroxy-1S-(phenylmethyl)propyl]-L-leucinamide]
- Activity, effect on human renin activity ([1]; Dose 4 × 10^-6 (unit not given)): Active

SMILES: CC(C)(C)OC(=O)N[C@@H](Cc1ccccc1)C(=O)N[C@@H](Cc1c[nH]cn1)C(=O)N[C@@H](Cc1ccccc1)[C@@H](O)CO [Compound 7, N-[(1,1-dimethylethoxy)carbonyl]-L-phenylalanyl-N-[2R,3-dihydroxy-1S-(phenylmethyl)propyl]-L-histidinamide]
- Activity, effect on human renin activity ([1]; Dose 2.6 × 10^-6 (unit not given)): Active

SMILES: CC(C)CC(=O)N[C@H](C(=O)N[C@H](C(=O)N[C@@H](CC(C)C)[C@@H](O)CC(=O)N[C@@H](C)C(=O)N[C@@H](CC(C)C)[C@@H](O)CC(=O)O)C(C)C)C(C)C [Pepstatin, pepstatin, reference compound] (Isovaleryl-VV[Sta]A[Sta]-OH)
- Blood pressure in vivo [3]: reduce blood pressure
- PRA after 15 min, in words [2]: returned to post-lasix levels
- PRA at 2 min after treatment, in words [2]: returned to pre-lasix values
- Plasma renin activity (PRA), Post-Lasix 2 min [2]: 13.0 ± 0.2
- Plasma renin activity (PRA), Post-Lasix 5 min [2]: 22.7 ± 9.2
- Plasma renin activity (PRA), Post-Lasix 15 min [2]: 44.7 ± 5.4
- Plasma renin activity (PRA), Pre-Lasix -24 hr [2]: 13.9 ± 2.5
- Plasma renin activity (PRA), Post-Lasix 0 hr [2]: 53.1 ± 6.1
